From publication PMC10620772, “Design, synthesis, and biological evaluation of new pyrimidine-5-carbonitrile derivatives as novel anti-cancer, dual EGFR^WT/COX-2 inhibitors with docking studies” (RSC Advances, 2023)

What was measured:
Experiment in all cases: NCI60 antitumor screening
Type in all cases: cell-based, human
K-562 = conditions: for inhibition at 10 µM: Homo sapiens, 10 μM single dose, (leukaemia), read-out: growth inhibition percent (GI%); for GI%: 10 μM one-dose
MOLT-4 = conditions: for inhibition at 10 µM: Homo sapiens, 10 μM single dose, MOLT-4 (leukaemia), read-out: growth inhibition percent (GI%)
SR = conditions: for inhibition at 10 µM: Homo sapiens, 10 μM single dose, SR (leukaemia), read-out: growth inhibition percent (GI%); for GI%: 10 μM one-dose, Table 1
A549/ATCC = conditions: for inhibition at 10 µM: Homo sapiens, 10 μM single dose, A549/ATCC (non-small cell lung cancer), read-out: growth inhibition percent (GI%)
HOP-92 = conditions: for inhibition at 10 µM: Homo sapiens, 10 μM single dose, HOP-92 (non-small cell lung cancer), read-out: growth inhibition percent (GI%)
NCI-H226 = conditions: for inhibition at 10 µM: Homo sapiens, 10 μM single dose, NCI-H226 (non-small cell lung cancer), read-out: growth inhibition percent (GI%); for GI%: 10 μM one-dose
NCI-H322M = conditions: for inhibition at 10 µM: Homo sapiens, 10 μM single dose, NCI-H322M (non-small cell lung cancer), read-out: growth inhibition percent (GI%)
HCT-15 = conditions: for inhibition at 10 µM: Homo sapiens, 10 μM single dose, HCT-15 (colon cancer), read-out: growth inhibition percent (GI%)
KM12 = conditions: for inhibition at 10 µM: Homo sapiens, 10 μM single dose, KM12 (colon cancer), read-out: growth inhibition percent (GI%)
SW-620 = conditions: for inhibition at 10 µM: Homo sapiens, 10 μM single dose, SW-620 (colon cancer), read-out: growth inhibition percent (GI%)
SF-268 = conditions: for inhibition at 10 µM: Homo sapiens, 10 μM single dose, SF-268 (CNS cancer), read-out: growth inhibition percent (GI%)
SF-295 = conditions: for inhibition at 10 µM: Homo sapiens, 10 μM single dose, SF-295 (CNS cancer), read-out: growth inhibition percent (GI%)
SF-539 = conditions: for inhibition at 10 µM: Homo sapiens, 10 μM single dose, SF-539 (CNS cancer), read-out: growth inhibition percent (GI%); for GI%: 10 μM one-dose
MALME-3M = conditions: for inhibition at 10 µM: Homo sapiens, 10 μM single dose, MALME-3M (melanoma), read-out: growth inhibition percent (GI%)
MDA-MB-435 = conditions: for inhibition at 10 µM: Homo sapiens, 10 μM single dose, MDA-MB-435 (melanoma), read-out: growth inhibition percent (GI%)
SK-MEL-2 = conditions: for inhibition at 10 µM: Homo sapiens, 10 μM single dose, SK-MEL-2 (melanoma), read-out: growth inhibition percent (GI%)
SK-MEL-5 = conditions: for inhibition at 10 µM: Homo sapiens, 10 μM single dose, SK-MEL-5 (melanoma), read-out: growth inhibition percent (GI%)
UACC-257 = conditions: for inhibition at 10 µM: Homo sapiens, 10 μM single dose, UACC-257 (melanoma), read-out: growth inhibition percent (GI%)
UACC-62 = conditions: for inhibition at 10 µM: Homo sapiens, 10 μM single dose, UACC-62 (melanoma), read-out: growth inhibition percent (GI%)
OVCAR-4 = conditions: for inhibition at 10 µM: Homo sapiens, 10 μM single dose, OVCAR-4 (ovarian cancer), read-out: growth inhibition percent (GI%); for GI%: 10 μM one-dose
OVCAR-5 = conditions: for inhibition at 10 µM: Homo sapiens, 10 μM single dose, OVCAR-5 (ovarian cancer), read-out: growth inhibition percent (GI%)
OVCAR-8 = conditions: for inhibition at 10 µM: Homo sapiens, 10 μM single dose, OVCAR-8 (ovarian cancer), read-out: growth inhibition percent (GI%)
SK-OV-3 = conditions: for inhibition at 10 µM: Homo sapiens, 10 μM single dose, SK-OV-3 (ovarian cancer), read-out: growth inhibition percent (GI%)
CAKI-1 = conditions: for inhibition at 10 µM: Homo sapiens, 10 μM single dose, CAKI-1 (renal cancer), read-out: growth inhibition percent (GI%)
MCF7 = conditions: for inhibition at 10 µM: Homo sapiens, 10 μM single dose, MCF7 (breast cancer), read-out: growth inhibition percent (GI%)
MDA-MB-231/ATCC = conditions: for inhibition at 10 µM: Homo sapiens, 10 μM single dose, MDA-MB-231/ATCC (breast cancer), read-out: growth inhibition percent (GI%)
HS 578T = conditions: for inhibition at 10 µM: Homo sapiens, 10 μM single dose, HS 578T (breast cancer), read-out: growth inhibition percent (GI%); for GI%: 10 μM one-dose
MDA-MB-468 = conditions: for inhibition at 10 µM: Homo sapiens, 10 μM single dose, MDA-MB-468 (breast cancer), read-out: growth inhibition percent (GI%)

Structure (SMILES): CN1CCN(c2nc(SCc3ccc([N+](=O)[O-])cc3)nc(-c3ccc(F)cc3)c2C#N)CC1 [4k, 4-(4-Fluorophenyl)-6-(4-methylpiperazin-1-yl)-2-((4-nitrobenzyl)thio)pyrimidine-5-carbonitrile]
- inhibition at 10 µM (K-562): 23.3%
- inhibition at 10 µM (MOLT-4): 17.6%
- inhibition at 10 µM (SR): < 10%
- inhibition at 10 µM (A549/ATCC): 18.7%
- inhibition at 10 µM (HOP-92): 47%
- inhibition at 10 µM (NCI-H226): < 10%
- inhibition at 10 µM (NCI-H322M): 26.3%
- inhibition at 10 µM (HCT-15): 15.7%
- inhibition at 10 µM (KM12): < 10%
- inhibition at 10 µM (SW-620): < 10%
- inhibition at 10 µM (SF-268): < 10%
- inhibition at 10 µM (SF-295): 29.3%
- inhibition at 10 µM (SF-539): 41%
- inhibition at 10 µM (MALME-3M): 27.2%
- inhibition at 10 µM (MDA-MB-435): < 10%
- inhibition at 10 µM (SK-MEL-2): < 10%
- inhibition at 10 µM (SK-MEL-5): 16.4%
- inhibition at 10 µM (UACC-257): < 10%
- inhibition at 10 µM (UACC-62): 19.8%
- inhibition at 10 µM (OVCAR-4): < 10%
- inhibition at 10 µM (OVCAR-5): 16.8%
- inhibition at 10 µM (OVCAR-8): 11.7%
- inhibition at 10 µM (SK-OV-3): 20.9%
- inhibition at 10 µM (CAKI-1): 34.8%
- inhibition at 10 µM (MCF7): 17.6%
- inhibition at 10 µM (MDA-MB-231/ATCC): 35.1%
- inhibition at 10 µM (HS 578T): 42.6%
- inhibition at 10 µM (MDA-MB-468): 12.4%

Structure (SMILES): CN1CCN(c2nc(SCc3ccc(F)cc3)nc(-c3ccc(F)cc3)c2C#N)CC1 [4j, 2-((4-Fluorobenzyl)thio)-4-(4-fluorophenyl)-6-(4-methylpiperazin-1-yl)pyrimidine-5-carbonitrile]
- GI% (K-562; Table 1): — (GI value > 70%)
- inhibition at 10 µM (K-562): 18.5%
- inhibition at 10 µM (MOLT-4): < 10%
- GI% (SR): — (GI value > 70%)
- inhibition at 10 µM (SR): < 10%
- inhibition at 10 µM (A549/ATCC): 27.7%
- inhibition at 10 µM (HOP-92): 66.2%
- GI% (NCI-H226; Table 1): — (GI value > 70%)
- inhibition at 10 µM (NCI-H226): 37.8%
- inhibition at 10 µM (NCI-H322M): 24.6%
- inhibition at 10 µM (HCT-15): < 10%
- inhibition at 10 µM (KM12): < 10%
- inhibition at 10 µM (SW-620): < 10%
- inhibition at 10 µM (SF-268): 15.8%
- inhibition at 10 µM (SF-295): 56.8%
- GI% (SF-539; Table 1): — (GI value > 70%)
- inhibition at 10 µM (SF-539): 54.8%
- inhibition at 10 µM (MALME-3M): 39.5%
- inhibition at 10 µM (MDA-MB-435): < 10%
- inhibition at 10 µM (SK-MEL-2): < 10%
- inhibition at 10 µM (SK-MEL-5): < 10%
- inhibition at 10 µM (UACC-257): < 10%
- inhibition at 10 µM (UACC-62): 22.5%
- GI% (OVCAR-4; Table 1): — (GI value > 70%)
- inhibition at 10 µM (OVCAR-4): 24.1%
- inhibition at 10 µM (OVCAR-5): 17.4%
- inhibition at 10 µM (OVCAR-8): 32%
- inhibition at 10 µM (SK-OV-3): 55.5%
- inhibition at 10 µM (CAKI-1): 57.5%
- inhibition at 10 µM (MCF7): 14.8%
- inhibition at 10 µM (MDA-MB-231/ATCC): 45.8%
- GI% (HS 578T; Table 1): — (GI value > 70%)
- inhibition at 10 µM (HS 578T): 60.4%
- inhibition at 10 µM (MDA-MB-468): 23.6%

Structure (SMILES): Cc1ccc(CSc2nc(-c3ccc(F)cc3)c(C#N)c(N3CCOCC3)n2)cc1 [4d, 4-(4-Fluorophenyl)-2-((4-methylbenzyl)thio)-6-morpholinopyrimidine-5-carbonitrile]
- GI% (K-562): 10.67%
- GI% (K-562; Table 1): — (GI value > 70%)
- GI% (MOLT-4; 10 μM one-dose): — (GI% < 10)
- GI% (SR): — (GI value > 70%)
- GI% (A549/ATCC; 10 μM one-dose): 24.90%
- GI% (HOP-92; 10 μM one-dose): 34.62%
- GI% (NCI-H226): 21.35%
- GI% (NCI-H226; Table 1): — (GI value > 70%)
- GI% (NCI-H322M; 10 μM one-dose): — (GI% < 10)
- GI% (HCT-15; 10 μM one-dose): — (GI% < 10)
- GI% (KM12; 10 μM one-dose): — (GI% < 10)
- GI% (SW-620; 10 μM one-dose): — (GI% < 10)
- GI% (SF-268; 10 μM one-dose): 22.32%
- GI% (SF-295; 10 μM one-dose): 32.25%
- GI% (SF-539): 32.27%
- GI% (SF-539; Table 1): — (GI value > 70%)
- GI% (MALME-3M; 10 μM one-dose): 26.17%
- GI% (MDA-MB-435; 10 μM one-dose): — (GI% < 10)
- GI% (SK-MEL-2; 10 μM one-dose): — (GI% < 10)
- GI% (SK-MEL-5; 10 μM one-dose): 10.99%
- GI% (UACC-257; 10 μM one-dose): 17.42%
- GI% (UACC-62; 10 μM one-dose): 22.83%
- GI% (OVCAR-4): 20.15%
- GI% (OVCAR-4; Table 1): — (GI value > 70%)
- GI% (OVCAR-5; 10 μM one-dose): — (GI% < 10)
- GI% (OVCAR-8; 10 μM one-dose): 23.86%
- GI% (SK-OV-3; 10 μM one-dose): 11.69%
- GI% (CAKI-1; 10 μM one-dose): 44.00%
- GI% (MCF7; 10 μM one-dose): 11.76%
- GI% (MDA-MB-231/ATCC; 10 μM one-dose): 31.92%
- GI% (HS 578T): 48.85%
- GI% (HS 578T; Table 1): — (GI value > 70%)
- GI% (MDA-MB-468; 10 μM one-dose): — (GI% < 10)
